#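 Abbreviation: GI50, concentration required for 50% inhibition of growth. TGI marks complete inhibition of growth.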
# How the values were obtained:
# Assay in all cases: NCI-60 cell line screen, 384-well format
# [1] = system: 786-0 renal
# [2] = system: A498 renal
# [3] = system: A549 NSCLC
# [4] = system: BT-549 breast
# [5] = system: CAKI-1 renal
# [6] = system: CCRF-CEM leukemia
# [7] = system: COLO 205 colon
# [8] = system: DU-145 prostate
# [9] = system: EKVX NSCLC
# [10] = system: HCC-2998 colon
# [11] = system: HCT-116 colon
# [12] = system: HCT-15 colon
# [13] = system: HL-60(TB) leukemia
# [14] = system: HOP-62 NSCLC
# [15] = system: HOP-92 NSCLC
# [16] = system: HS 578T breast
# [17] = system: HT29 colon
# [18] = system: IGROV1 ovarian
# [19] = system: KM12 colon
# [20] = system: LOX IMVI melanoma
# [21] = system: M14 melanoma
# [22] = system: MALME-3M melanoma
# [23] = system: MCF7 breast
# [24] = system: MDA-MB-231 breast
# [25] = system: MDA-MB-435 melanoma
# [26] = system: MOLT-4 leukemia
# [27] = system: NCI-H226 lung
# [28] = system: NCI-H23 lung
# [29] = system: NCI-H322M lung
# [30] = system: NCI-H460 NSCLC
# [31] = system: NCI/ADR-RES ovarian
# [32] = system: OVCAR-3 ovarian
# [33] = system: OVCAR-4 ovarian
# [34] = system: OVCAR-8 ovarian
# [35] = system: RPMI-8226 leukemia
# [36] = system: RXF 393 renal
# [37] = system: SF-268 CNS
# [38] = system: SF-539 CNS
# [39] = system: SK-MEL-2 melanoma
# [40] = system: SK-MEL-28 melanoma
# [41] = system: SK-MEL-5 melanoma
# [42] = system: SK-OV-3 ovarian
# [43] = system: SN12C renal
# [44] = system: SNB-19 CNS
# [45] = system: SNB-75 CNS
# [46] = system: SR leukemia
# [47] = system: SW-620 colon
# [48] = system: TK-10 renal
# [49] = system: U251 glioblastoma
# [50] = system: UACC-257 melanoma
# [51] = system: UACC-62 melanoma
# [52] = system: UO-31 renal
smiles,measurement,setting,value
C[C@@]1(O)CCC[C@H]1n1c(=O)c(C(F)F)cc2cnc(NC3CCN(S(C)(=O)=O)CC3)nc21,GI50,[1],1850 nM
same,TGI,[1],> 100000 nM
same,GI50,[2],1750 nM
same,TGI,[2],> 100000 nM
same,GI50,[3],1980 nM
same,TGI,[3],> 100000 nM
same,GI50,[4],866 nM
same,TGI,[4],3040 nM
same,GI50,[5],784 nM
same,TGI,[5],> 100000 nM
same,GI50,[6],357 nM
same,TGI,[6],1770 nM
same,GI50,[7],1330 nM
same,TGI,[7],4740 nM
same,GI50,[8],1630 nM
same,TGI,[8],6380 nM
same,GI50,[9],1900 nM
same,TGI,[9],5150 nM
same,GI50,[10],1380 nM
same,TGI,[10],3900 nM
same,GI50,[11],198 nM
same,TGI,[11],> 100000 nM
same,GI50,[12],1790 nM
same,TGI,[12],15800 nM
same,GI50,[13],72.1 nM
same,TGI,[13],1200 nM
same,GI50,[14],1800 nM
same,TGI,[14],6590 nM
same,GI50,[15],2050 nM
same,TGI,[15],> 100000 nM
same,GI50,[16],1920 nM
same,TGI,[16],4040 nM
same,GI50,[17],1830 nM
same,TGI,[17],> 100000 nM
same,GI50,[18],1620 nM
same,TGI,[18],> 100000 nM
same,GI50,[19],1070 nM
same,TGI,[19],3920 nM
same,GI50,[20],1600 nM
same,TGI,[20],> 100000 nM
same,GI50,[21],1470 nM
same,TGI,[21],5490 nM
same,GI50,[22],1440 nM
same,TGI,[22],3160 nM
same,GI50,[23],128 nM
same,TGI,[23],19100 nM
same,GI50,[24],2340 nM
same,TGI,[24],> 100000 nM
same,GI50,[25],1630 nM
same,TGI,[25],9280 nM
same,GI50,[26],445 nM
same,TGI,[26],1930 nM
same,GI50,[27],1100 nM
same,TGI,[27],> 100000 nM
same,GI50,[28],1680 nM
same,TGI,[28],3300 nM
same,GI50,[29],2070 nM
same,TGI,[29],5800 nM
same,GI50,[30],58.9 nM
same,TGI,[30],2180 nM
same,GI50,[31],21000 nM
same,TGI,[31],> 100000 nM
same,GI50,[32],1520 nM
same,TGI,[32],5570 nM
same,GI50,[33],3040 nM
same,TGI,[33],7150 nM
same,GI50,[34],1540 nM
same,TGI,[34],> 100000 nM
same,GI50,[35],29 nM
same,TGI,[35],95.1 nM
same,GI50,[36],1440 nM
same,TGI,[36],2880 nM
same,GI50,[37],1690 nM
same,TGI,[37],4040 nM
same,GI50,[38],1300 nM
same,TGI,[38],2890 nM
same,GI50,[39],2250 nM
same,TGI,[39],4210 nM
same,GI50,[40],1210 nM
same,TGI,[40],2910 nM
same,GI50,[41],99.3 nM
same,TGI,[41],2280 nM
same,GI50,[42],3010 nM
same,TGI,[42],> 100000 nM
same,GI50,[43],1990 nM
same,TGI,[43],4920 nM
same,GI50,[44],2400 nM
same,TGI,[44],> 100000 nM
same,GI50,[45],1420 nM
same,TGI,[45],3020 nM
same,GI50,[46],34.4 nM
same,TGI,[46],1080 nM
same,GI50,[47],94.4 nM
same,TGI,[47],> 100000 nM
same,GI50,[48],1150 nM
same,TGI,[48],> 100000 nM
same,GI50,[49],2030 nM
same,TGI,[49],8800 nM
same,GI50,[50],1630 nM
same,TGI,[50],3970 nM
same,GI50,[51],951 nM
same,TGI,[51],2940 nM
same,GI50,[52],1010 nM
same,TGI,[52],4130 nM

# Reference: PubChem BioAssay (NCI)
